These results are taken from US20120270237A9, “METHODS FOR THE IDENTIFICATION OF KINASE INTERACTING MOLECULES AND FOR THE PURIFICATION OF KINASE PROTEINS” (Cellzone AG, priority 2009, published 2012).

Molecules are shown by their SMILES.

What all share (experiment): Kinobeads competition binding, L-363 cell lysate
Holding throughout (design): endogenous in cells
Holding throughout (conditions): 10 μM free compound, L-363 lysate

For one experiment, the target named is ARG (Homo sapiens, UniProt P42684). The method, boiled down: (§1)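 L-363 plasma cell leukaemia cells were treated 3 h with 20 μM MG132 before harvest. Lysate was preincubated with 10 μM free compound or DMSO, then captured on matrix bearing immobilized compound; bound proteins were eluted, SDS-PAGE separated, trypsin-digested, iTRAQ-labeled and quantified by LC-MS/MS reporter ions.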
ARG, sequence (P42684 whole entry): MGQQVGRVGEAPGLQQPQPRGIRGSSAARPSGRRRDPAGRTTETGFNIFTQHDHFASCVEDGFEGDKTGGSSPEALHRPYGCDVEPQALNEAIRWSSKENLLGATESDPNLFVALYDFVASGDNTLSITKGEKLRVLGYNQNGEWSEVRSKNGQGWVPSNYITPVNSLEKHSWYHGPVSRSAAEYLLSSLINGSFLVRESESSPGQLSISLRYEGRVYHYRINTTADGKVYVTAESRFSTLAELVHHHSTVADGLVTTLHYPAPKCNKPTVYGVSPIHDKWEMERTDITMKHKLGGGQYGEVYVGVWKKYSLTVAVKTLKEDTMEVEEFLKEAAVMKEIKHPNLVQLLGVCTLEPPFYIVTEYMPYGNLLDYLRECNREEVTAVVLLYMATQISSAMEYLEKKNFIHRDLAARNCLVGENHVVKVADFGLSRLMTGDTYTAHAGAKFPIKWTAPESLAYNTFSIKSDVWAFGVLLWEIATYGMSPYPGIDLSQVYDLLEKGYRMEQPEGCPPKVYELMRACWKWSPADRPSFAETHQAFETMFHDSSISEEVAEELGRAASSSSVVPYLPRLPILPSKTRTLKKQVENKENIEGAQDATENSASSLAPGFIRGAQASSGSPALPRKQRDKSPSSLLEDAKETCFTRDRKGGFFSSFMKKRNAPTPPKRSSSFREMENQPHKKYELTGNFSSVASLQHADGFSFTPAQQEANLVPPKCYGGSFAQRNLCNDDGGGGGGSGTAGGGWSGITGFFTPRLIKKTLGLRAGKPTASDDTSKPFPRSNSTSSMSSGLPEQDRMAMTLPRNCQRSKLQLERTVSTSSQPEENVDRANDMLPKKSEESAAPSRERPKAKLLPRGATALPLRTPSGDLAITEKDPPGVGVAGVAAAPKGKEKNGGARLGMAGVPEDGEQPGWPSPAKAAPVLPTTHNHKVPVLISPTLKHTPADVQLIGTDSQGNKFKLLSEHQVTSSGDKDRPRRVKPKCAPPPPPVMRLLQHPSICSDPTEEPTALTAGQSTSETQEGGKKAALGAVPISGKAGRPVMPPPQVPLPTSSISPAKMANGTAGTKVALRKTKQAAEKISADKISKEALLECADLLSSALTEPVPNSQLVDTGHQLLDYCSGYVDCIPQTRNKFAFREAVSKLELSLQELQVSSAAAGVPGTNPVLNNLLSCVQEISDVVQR

In a further experiment the target is CHK1 (Homo sapiens, UniProt O14757). The method, boiled down: as §1
CHK1, sequence (O14757 whole entry): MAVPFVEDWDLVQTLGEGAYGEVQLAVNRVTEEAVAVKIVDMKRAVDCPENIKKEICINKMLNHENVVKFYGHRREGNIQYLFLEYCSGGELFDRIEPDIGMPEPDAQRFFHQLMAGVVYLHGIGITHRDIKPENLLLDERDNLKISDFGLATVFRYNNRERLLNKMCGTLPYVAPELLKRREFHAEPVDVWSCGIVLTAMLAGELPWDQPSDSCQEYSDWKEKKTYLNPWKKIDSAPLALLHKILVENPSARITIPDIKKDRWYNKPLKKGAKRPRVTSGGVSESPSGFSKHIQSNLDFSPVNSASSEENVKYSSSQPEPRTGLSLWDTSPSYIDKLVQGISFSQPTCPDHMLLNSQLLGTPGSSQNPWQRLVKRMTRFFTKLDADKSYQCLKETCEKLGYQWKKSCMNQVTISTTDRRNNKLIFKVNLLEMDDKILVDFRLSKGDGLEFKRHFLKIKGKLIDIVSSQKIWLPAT
For another experiment, the target named is Erk2 (Homo sapiens, UniProt P28482). In a few lines:
as §1

A further experiment addresses T1, GAK (Homo sapiens, UniProt O14976).
T1 sequence (O14976 1-1311): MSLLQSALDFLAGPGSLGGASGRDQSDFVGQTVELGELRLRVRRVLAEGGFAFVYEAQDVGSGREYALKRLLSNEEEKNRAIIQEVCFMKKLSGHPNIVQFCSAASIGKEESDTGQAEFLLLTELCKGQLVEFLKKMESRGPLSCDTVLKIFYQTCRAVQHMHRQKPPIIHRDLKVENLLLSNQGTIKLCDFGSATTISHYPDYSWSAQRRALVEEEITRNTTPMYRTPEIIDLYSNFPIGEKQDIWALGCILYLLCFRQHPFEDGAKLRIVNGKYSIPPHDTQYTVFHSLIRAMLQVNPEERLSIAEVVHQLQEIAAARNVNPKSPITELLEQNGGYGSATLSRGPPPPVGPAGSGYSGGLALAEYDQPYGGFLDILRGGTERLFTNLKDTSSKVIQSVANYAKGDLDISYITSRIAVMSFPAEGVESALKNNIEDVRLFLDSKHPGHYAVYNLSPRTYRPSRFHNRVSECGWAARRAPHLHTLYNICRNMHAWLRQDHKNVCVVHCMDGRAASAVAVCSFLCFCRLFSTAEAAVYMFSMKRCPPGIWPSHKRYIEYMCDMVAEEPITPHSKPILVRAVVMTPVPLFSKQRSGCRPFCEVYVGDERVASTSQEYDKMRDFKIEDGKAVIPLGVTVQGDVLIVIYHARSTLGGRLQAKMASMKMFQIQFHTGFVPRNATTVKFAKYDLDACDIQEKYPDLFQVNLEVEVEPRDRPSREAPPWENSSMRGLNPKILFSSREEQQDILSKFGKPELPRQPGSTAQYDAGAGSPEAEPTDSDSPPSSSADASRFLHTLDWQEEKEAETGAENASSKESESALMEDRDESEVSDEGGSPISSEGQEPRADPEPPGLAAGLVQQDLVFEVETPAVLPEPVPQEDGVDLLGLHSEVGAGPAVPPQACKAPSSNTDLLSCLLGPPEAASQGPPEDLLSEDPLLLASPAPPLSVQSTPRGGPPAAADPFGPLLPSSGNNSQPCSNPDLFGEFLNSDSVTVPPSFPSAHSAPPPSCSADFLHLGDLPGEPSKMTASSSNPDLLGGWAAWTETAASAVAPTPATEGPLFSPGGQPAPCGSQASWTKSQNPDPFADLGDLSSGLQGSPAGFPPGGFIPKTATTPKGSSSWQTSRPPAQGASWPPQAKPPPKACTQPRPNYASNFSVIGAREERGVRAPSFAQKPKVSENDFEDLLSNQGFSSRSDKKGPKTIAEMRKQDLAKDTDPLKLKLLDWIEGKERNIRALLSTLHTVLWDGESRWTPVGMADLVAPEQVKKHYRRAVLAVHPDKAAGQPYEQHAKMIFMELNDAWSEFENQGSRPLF
In a few lines: as §1

The next experiment has as its target T2, MAP3K2 (Homo sapiens, UniProt Q9Y2U5).
T2 sequence (Q9Y2U5 1-619): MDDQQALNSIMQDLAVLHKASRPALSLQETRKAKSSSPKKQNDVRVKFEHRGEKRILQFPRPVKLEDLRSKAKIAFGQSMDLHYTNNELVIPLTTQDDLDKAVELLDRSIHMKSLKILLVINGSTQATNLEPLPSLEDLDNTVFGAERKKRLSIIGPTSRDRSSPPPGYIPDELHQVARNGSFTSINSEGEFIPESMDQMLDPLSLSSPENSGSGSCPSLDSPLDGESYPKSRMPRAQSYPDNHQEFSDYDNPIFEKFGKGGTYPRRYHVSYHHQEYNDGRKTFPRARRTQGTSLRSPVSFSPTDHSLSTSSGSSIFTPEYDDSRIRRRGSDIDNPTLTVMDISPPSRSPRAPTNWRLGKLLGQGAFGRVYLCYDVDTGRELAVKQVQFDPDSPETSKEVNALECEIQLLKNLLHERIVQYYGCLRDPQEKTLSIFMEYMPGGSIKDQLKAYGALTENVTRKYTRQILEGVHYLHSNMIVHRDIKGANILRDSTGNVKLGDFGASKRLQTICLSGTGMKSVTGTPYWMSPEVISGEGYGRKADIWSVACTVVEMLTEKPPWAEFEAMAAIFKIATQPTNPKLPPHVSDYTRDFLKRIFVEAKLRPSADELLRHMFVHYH
In a few lines:
as §1

In the next experiment the target is MARK3 (Homo sapiens, UniProt P27448). In a few lines:
as §1

In a further experiment the target is PLK1 (Homo sapiens, UniProt P53350). The method, boiled down:
as §1

MARK3, sequence (P27448 whole entry): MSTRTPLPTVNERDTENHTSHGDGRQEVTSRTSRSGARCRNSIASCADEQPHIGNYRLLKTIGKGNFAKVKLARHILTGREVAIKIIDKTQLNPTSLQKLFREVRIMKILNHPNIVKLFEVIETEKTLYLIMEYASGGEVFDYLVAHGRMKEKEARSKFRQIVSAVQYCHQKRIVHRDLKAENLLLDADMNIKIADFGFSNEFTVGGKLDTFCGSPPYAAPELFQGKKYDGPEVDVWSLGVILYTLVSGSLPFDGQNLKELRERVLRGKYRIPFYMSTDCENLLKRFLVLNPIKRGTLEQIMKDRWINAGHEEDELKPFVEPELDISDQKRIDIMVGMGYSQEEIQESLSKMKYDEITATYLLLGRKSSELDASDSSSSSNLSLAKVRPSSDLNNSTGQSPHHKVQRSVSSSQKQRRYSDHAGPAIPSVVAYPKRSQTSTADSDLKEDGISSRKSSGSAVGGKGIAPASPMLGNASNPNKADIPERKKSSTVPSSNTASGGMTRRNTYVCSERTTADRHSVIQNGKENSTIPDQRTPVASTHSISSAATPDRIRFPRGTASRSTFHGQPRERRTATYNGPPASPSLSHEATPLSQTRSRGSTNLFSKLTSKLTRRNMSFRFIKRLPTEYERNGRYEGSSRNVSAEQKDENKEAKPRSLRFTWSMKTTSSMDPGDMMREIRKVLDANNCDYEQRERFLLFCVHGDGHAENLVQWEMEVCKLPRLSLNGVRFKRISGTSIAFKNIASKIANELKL
Erk2, sequence (P28482 whole entry): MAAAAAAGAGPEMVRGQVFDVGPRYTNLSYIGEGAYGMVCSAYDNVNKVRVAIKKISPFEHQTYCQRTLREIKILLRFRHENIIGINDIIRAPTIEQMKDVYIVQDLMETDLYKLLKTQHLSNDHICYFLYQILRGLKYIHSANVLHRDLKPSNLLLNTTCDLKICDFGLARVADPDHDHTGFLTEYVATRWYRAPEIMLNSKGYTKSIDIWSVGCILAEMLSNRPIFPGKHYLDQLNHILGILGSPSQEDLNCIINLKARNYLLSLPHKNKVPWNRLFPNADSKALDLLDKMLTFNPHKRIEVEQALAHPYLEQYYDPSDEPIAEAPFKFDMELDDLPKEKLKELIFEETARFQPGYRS
PLK1, sequence (P53350 whole entry): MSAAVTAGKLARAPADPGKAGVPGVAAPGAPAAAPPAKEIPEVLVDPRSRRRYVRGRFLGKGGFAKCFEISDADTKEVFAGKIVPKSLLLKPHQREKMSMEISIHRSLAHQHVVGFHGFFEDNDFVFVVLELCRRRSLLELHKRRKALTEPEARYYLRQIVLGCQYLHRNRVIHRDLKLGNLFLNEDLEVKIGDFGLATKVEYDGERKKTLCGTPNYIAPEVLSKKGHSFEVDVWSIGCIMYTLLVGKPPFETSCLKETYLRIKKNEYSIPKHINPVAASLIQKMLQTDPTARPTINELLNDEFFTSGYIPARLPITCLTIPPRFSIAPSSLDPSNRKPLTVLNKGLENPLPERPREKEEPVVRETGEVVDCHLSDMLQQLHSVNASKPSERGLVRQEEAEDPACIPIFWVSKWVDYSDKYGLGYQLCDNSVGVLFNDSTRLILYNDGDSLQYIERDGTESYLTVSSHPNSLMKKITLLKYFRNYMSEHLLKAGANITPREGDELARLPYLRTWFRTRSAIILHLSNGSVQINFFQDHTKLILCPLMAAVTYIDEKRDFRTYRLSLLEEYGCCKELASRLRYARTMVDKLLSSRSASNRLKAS

On to `CS(=O)(=O)Nc1ccccc1Nc1nc(Nc2cccc(OCCN)c2)ncc1Cl` [CZC31326, N-(2-(2-(3-(2-aminoethoxy)phenylamino)-5-chloropyrimidin-4-ylamino)phenyl)methanesulfonamide], for which the inhibition at 10 µM on ARG came out at 95.8%; at Erk2, 74.4%; at GAK, 98.2%; at MAP3K2 it was 96%; on MARK3 it was 97%; at PLK1, 96.8%. Moreover, the Competition % on CHK1 is given as 94.8%.
